Experiments:
Settings in all cases: 48 h
[1] = test system: SEM cells; experiment: cell viability relative to DMSO control; higher = less cytotoxic
How it was run: (§1)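 Before seeding, each leukemia line was adapted for at least four passages in each medium. NOMO1 or SEM cells (500 cells/well) and P12-Ichikawa cells (1000 cells/well) went into 1536-well plates at 5 μl, then received library compounds in DMSO by pin dosing across 11 threefold concentrations, 47 μM to 0.79 nM. Readout was CellTiter-Glo One luminescence after 48 h at 37°C, and viability is given as a per-plate percentage of DMSO wells, with cell-free wells as background.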

[2] = test system: NOMO1; experiment: as above
How it was run: as §1

[3] = test system: P12-Ichikawa; experiment: as above
How it was run: as §1

[4] = test system: NOMO1; experiment: AUC of viability dose-response curve (% viability x log10 dose units); higher = less sensitive
How it was run: (§2)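 Medium-adapted leukemia cells in 1536-well plates, at 500 or 1000 cells/well, were incubated for 48 h at 37°C with library compounds in DMSO at 11 threefold doses from 47 μM to 0.79 nM. CellTiter-Glo One luminescence normalised per plate to DMSO and cell-free wells was fitted with a four-parameter log-logistic model over log10 doses. Area under the curve was integrated from this fit by trapezoidal rule, with curves beyond full viability scaled and failed quality-control curves removed.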

[5] = test system: P12-Ichikawa; experiment: as above
How it was run: as §2

[6] = test system: SEM cells; experiment: as above
How it was run: as §2

[7] = HPLM + 10% dialyzed FBS, 0.000781 µM
[8] = HPLM + 10% dialyzed FBS, 0.00234 µM
[9] = HPLM + 10% dialyzed FBS, 0.00702 µM
[10] = HPLM + 10% dialyzed FBS, 0.0211 µM
[11] = HPLM + 10% dialyzed FBS, 0.0632 µM
[12] = HPLM + 10% dialyzed FBS, 0.19 µM
[13] = HPLM + 10% dialyzed FBS, 0.569 µM
[14] = HPLM + 10% dialyzed FBS, 1.71 µM
[15] = HPLM + 10% dialyzed FBS, 5.12 µM
[16] = HPLM + 10% dialyzed FBS, 15.4 µM
[17] = HPLM + 10% dialyzed FBS, 46.1 µM
[18] = RPMI 5 mM glucose + 10% FBS, 0.000781 µM
[19] = RPMI 5 mM glucose + 10% FBS, 0.00234 µM
[20] = RPMI 5 mM glucose + 10% FBS, 0.00702 µM
[21] = RPMI 5 mM glucose + 10% FBS, 0.0211 µM
[22] = RPMI 5 mM glucose + 10% FBS, 0.0632 µM
[23] = RPMI 5 mM glucose + 10% FBS, 0.19 µM
[24] = RPMI 5 mM glucose + 10% FBS, 0.569 µM
[25] = RPMI 5 mM glucose + 10% FBS, 1.71 µM
[26] = RPMI 5 mM glucose + 10% FBS, 5.12 µM
[27] = RPMI 5 mM glucose + 10% FBS, 15.4 µM
[28] = RPMI 5 mM glucose + 10% FBS, 46.1 µM
[29] = RPMI 5 mM glucose + 10% dialyzed FBS, 0.000781 µM
[30] = RPMI 5 mM glucose + 10% dialyzed FBS, 0.00234 µM
[31] = RPMI 5 mM glucose + 10% dialyzed FBS, 0.00702 µM
[32] = RPMI 5 mM glucose + 10% dialyzed FBS, 0.0211 µM
[33] = RPMI 5 mM glucose + 10% dialyzed FBS, 0.0632 µM
[34] = RPMI 5 mM glucose + 10% dialyzed FBS, 0.19 µM
[35] = RPMI 5 mM glucose + 10% dialyzed FBS, 0.569 µM
[36] = RPMI 5 mM glucose + 10% dialyzed FBS, 1.71 µM
[37] = RPMI 5 mM glucose + 10% dialyzed FBS, 5.12 µM
[38] = RPMI 5 mM glucose + 10% dialyzed FBS, 15.4 µM
[39] = RPMI 5 mM glucose + 10% dialyzed FBS, 46.1 µM
[40] = RPMI 5 mM glucose + 10% dialyzed FBS

For `O=C(NCCCNc1nc(Nc2cccc(NC(=O)N3CCCC3)c2)ncc1I)c1cccs1`, the cell viability [1, 7] was 55.6%, the cell viability [1, 8] was 91.1% and the cell viability [1, 9] was 102%. The cell viability [1, 10] was 75.8%, the cell viability [1, 11] was 46.5% and the cell viability [1, 12] was 60.8%. For the same molecule, the cell viability [1, 13] was 50.4%, the cell viability [1, 14] was 27.2% and the cell viability [1, 15] was 32.9%. The cell viability [1, 16] was 76.7%, the cell viability [1, 17] was 70.6% and the cell viability [1, 18] was 74%. The cell viability [1, 19] was 124%, the cell viability [1, 20] was 124% and the cell viability [1, 21] was 111%. The cell viability [1, 22] was 68.7%, the cell viability [1, 23] was 85.1% and the cell viability [1, 24] was 33.1%. For the same molecule, the cell viability [1, 25] was 13.4%, the cell viability [1, 26] was 37.5% and the cell viability [1, 27] was 77.7%. For the same molecule, the cell viability [1, 28] was 68.9%, the cell viability [1, 29] was 46.5% and the cell viability [1, 30] was 96.9%. The cell viability [1, 31] was 87.4%, the cell viability [1, 32] was 78.9% and the cell viability [1, 33] was 36.8%. It also gave a cell viability [1, 34] of 64.9%, a cell viability [1, 35] of 42.6% and a cell viability [1, 36] of 23.9%. The cell viability [1, 37] was 28.4%, the cell viability [1, 38] was 79.6% and the cell viability [1, 39] was 62.6%. The cell viability [2, 7] was 81.8%, the cell viability [2, 8] was 91% and the cell viability [2, 9] was 88.4%. For the same molecule, the cell viability [2, 10] was 79.3%, the cell viability [2, 11] was 80.9% and the cell viability [2, 12] was 72%. The cell viability [2, 13] was 91.5%, the cell viability [2, 14] was 51.5% and the cell viability [2, 15] was 67.9%. For the same molecule, the cell viability [2, 16] was 84.3%, the cell viability [2, 17] was 78.7% and the cell viability [2, 18] was 80.4%. The cell viability [2, 19] was 89.7%, the cell viability [2, 20] was 78% and the cell viability [2, 21] was 81.5%. It also gave a cell viability [2, 22] of 76.1%, a cell viability [2, 23] of 76.9% and a cell viability [2, 24] of 80%. The cell viability [2, 25] was 65.9%, the cell viability [2, 26] was 77% and the cell viability [2, 27] was 83.1%. The cell viability [2, 28] was 89.9%, the cell viability [2, 29] was 89.1% and the cell viability [2, 30] was 89.2%. The cell viability [2, 31] was 89.3%, the cell viability [2, 32] was 75% and the cell viability [2, 33] was 84.6%. It also gave a cell viability [2, 34] of 84.4%, a cell viability [2, 35] of 80% and a cell viability [2, 36] of 59.1%. It also gave a cell viability [2, 37] of 83.1%, a cell viability [2, 38] of 75.7% and a cell viability [2, 39] of 76.9%. It also gave a cell viability [3, 7] of 91.6%, a cell viability [3, 8] of 91.9% and a cell viability [3, 9] of 93%. For the same molecule, the cell viability [3, 10] was 90.9%, the cell viability [3, 11] was 87.3% and the cell viability [3, 12] was 84%. It also gave a cell viability [3, 13] of 81.3%, a cell viability [3, 14] of 72.5% and a cell viability [3, 15] of 84.9%. It also gave a cell viability [3, 16] of 76.1%, a cell viability [3, 17] of 85.1% and a cell viability [3, 18] of 83.2%. The cell viability [3, 19] was 91%, the cell viability [3, 20] was 87.6% and the cell viability [3, 21] was 90%. The cell viability [3, 22] was 85.9%, the cell viability [3, 23] was 90.4% and the cell viability [3, 24] was 94.2%. The cell viability [3, 25] was 50%, the cell viability [3, 26] was 84.5% and the cell viability [3, 27] was 83.7%. It also gave a cell viability [3, 28] of 79.9%, a cell viability [3, 29] of 88.1% and a cell viability [3, 30] of 84.6%. For the same molecule, the cell viability [3, 31] was 79.8%, the cell viability [3, 32] was 82.6% and the cell viability [3, 33] was 91.7%. It also gave a cell viability [3, 34] of 88.1%, a cell viability [3, 35] of 84.9% and a cell viability [3, 36] of 81.4%. For the same molecule, the cell viability [3, 37] was 80.2%, the cell viability [3, 38] was 85.6% and the cell viability [3, 39] was 72.4%. For the same molecule, the “AUC of viability dose-response curve” value ([4]; HPLM + 10% dialyzed FBS) was 375, the “AUC of viability dose-response curve” value ([4]; RPMI 5 mM glucose + 10% FBS) was 381 and the “AUC of viability dose-response curve” value [4, 40] was 384. For the same molecule, the “AUC of viability dose-response curve” value ([5]; HPLM + 10% dialyzed FBS) was 407, the “AUC of viability dose-response curve” value ([5]; RPMI 5 mM glucose + 10% FBS) was 400 and the “AUC of viability dose-response curve” value [5, 40] was 401.

Molecule `CNNCc1ccc(C(=O)NC(C)C)cc1` has a cell viability [1, 7] of 102%, a cell viability [1, 8] of 118% and a cell viability [1, 9] of 130%. For the same molecule, the cell viability [1, 10] was 117%, the cell viability [1, 11] was 139% and the cell viability [1, 12] was 133%. The cell viability [1, 13] was 107%, the cell viability [1, 14] was 132% and the cell viability [1, 15] was 83.7%. For the same molecule, the cell viability [1, 16] was 92.1%, the cell viability [1, 17] was 40.7% and the cell viability [3, 7] was 118%. It also gave a cell viability [3, 8] of 123%, a cell viability [3, 9] of 125% and a cell viability [3, 10] of 136%. It also gave a cell viability [3, 11] of 124%, a cell viability [3, 12] of 137% and a cell viability [3, 13] of 135%. It also gave a cell viability [3, 14] of 144%, a cell viability [3, 15] of 133% and a cell viability [3, 16] of 119%. For the same molecule, the cell viability [3, 17] was 99.7%, the “AUC of viability dose-response curve” value ([6]; HPLM + 10% dialyzed FBS) was 434 and the “AUC of viability dose-response curve” value ([6]; RPMI 5 mM glucose + 10% FBS) was 452. The “AUC of viability dose-response curve” value [6, 40] was 448, the “AUC of viability dose-response curve” value ([4]; HPLM + 10% dialyzed FBS) was 465 and the “AUC of viability dose-response curve” value ([4]; RPMI 5 mM glucose + 10% FBS) was 468. The “AUC of viability dose-response curve” value [4, 40] was 468, the “AUC of viability dose-response curve” value ([5]; HPLM + 10% dialyzed FBS) was 467 and the “AUC of viability dose-response curve” value ([5]; RPMI 5 mM glucose + 10% FBS) was 464. The “AUC of viability dose-response curve” value [5, 40] was 466.

Work on `N[C@@H](Cc1c[nH]c2ccc(O)cc12)C(=O)O` yielded a cell viability [1, 7] of 114%, a cell viability [1, 8] of 110% and a cell viability [1, 9] of 120%. The cell viability [1, 10] was 120%, the cell viability [1, 11] was 94.1% and the cell viability [1, 12] was 121%. The cell viability [1, 13] was 105%, the cell viability [1, 14] was 110% and the cell viability [1, 15] was 102%. The cell viability [1, 16] was 85%, the cell viability [1, 17] was 80.8% and the “AUC of viability dose-response curve” value ([6]; HPLM + 10% dialyzed FBS) was 454. The “AUC of viability dose-response curve” value ([6]; RPMI 5 mM glucose + 10% FBS) was 401, the “AUC of viability dose-response curve” value [6, 40] was 398 and the “AUC of viability dose-response curve” value ([4]; HPLM + 10% dialyzed FBS) was 391. The “AUC of viability dose-response curve” value ([4]; RPMI 5 mM glucose + 10% FBS) was 411, the “AUC of viability dose-response curve” value [4, 40] was 392 and the “AUC of viability dose-response curve” value ([5]; HPLM + 10% dialyzed FBS) was 462. For the same molecule, the “AUC of viability dose-response curve” value ([5]; RPMI 5 mM glucose + 10% FBS) was 444 and the “AUC of viability dose-response curve” value [5, 40] was 458.

`OCCn1cc(-c2ccc3c(c2)CC/C3=N\O)c(-c2ccncc2)n1` was tested, and the “AUC of viability dose-response curve” value ([6]; HPLM + 10% dialyzed FBS) was 462, the “AUC of viability dose-response curve” value ([6]; RPMI 5 mM glucose + 10% FBS) was 465 and the “AUC of viability dose-response curve” value [6, 40] was 472. For the same molecule, the “AUC of viability dose-response curve” value ([4]; HPLM + 10% dialyzed FBS) was 464, the “AUC of viability dose-response curve” value ([4]; RPMI 5 mM glucose + 10% FBS) was 468 and the “AUC of viability dose-response curve” value [4, 40] was 472. For the same molecule, the “AUC of viability dose-response curve” value ([5]; HPLM + 10% dialyzed FBS) was 444, the “AUC of viability dose-response curve” value ([5]; RPMI 5 mM glucose + 10% FBS) was 450 and the “AUC of viability dose-response curve” value [5, 40] was 440.

— the supplement of paper PMC11451515
